Where two headings read alike, the source gives them in different places.

The test system of assay [1] is iCell endothelial cells (human iPSC-derived ECs). Nature of the assay: High-content imaging cytotoxicity in iCell endothelial cells, 24 h. The assay is classed as cell-based. The settings on record: Homo sapiens, Endothelial cell, 24 hr; for viability at 0.1 µM / activity at 0.1 µM: 0.10 µM. The method, boiled down: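 Readouts were vehicle-normalised and fitted to a four-parameter logistic model. POD was set at one SD beyond 0.5% DMSO control means, and 100 µM was assigned when no response was seen. Cells were monolayers of iCell endothelial cells imaged after 24 h compound exposure using nuclear, mitochondrial and calcein dyes.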

Another assay concerns HUVECs. Description: Tube formation (tubulogenesis) assay in HUVECs, 18 h. As to conditions: Homo sapiens, HUVEC, 18 h; for activity at 0.1 µM: 0.10 µM. The assay is classed as cell-based, human. The method, boiled down: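 HUVECs (passage 1–5) seeded on reduced-growth-factor basement membrane and exposed to compounds overnight at 37°C, 5% CO2, in 2× maintenance medium with 12.5 ng/mL VEGF; 0.5% DMSO vehicle. Calcein AM-stained tube networks imaged and analysed; vehicle-normalized readouts fit to four-parameter logistic, POD set at one SD of vehicle means.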

Setting [2] is: iPSC-EC, 0.00 µM control = 100.00, read-out: endo.cyto.24hr.
Where [3] appears, read: iPSC-EC, 0.00 µM control = 100.00, read-out: endo.mito.24hr.
The mark [4] stands for this setting: iPSC-EC, 0.00 µM control = 100.00, read-out: endo.mitoint.24hr.
Where [5] appears, read: iPSC-EC, 0.00 µM control = 100.00, read-out: endo.nma.24hr.
[6] abbreviates: iPSC-EC, 0.00 µM control = 100.00, read-out: endo.tc.24hrs.
Setting [7] is: HUVECs, 0.00 µM = 100.00, read-out: huvec.mtl.18hr.
The mark [8] stands for this setting: HUVECs, 0.00 µM = 100.00, read-out: huvec.tlps.18hr.
[9] abbreviates: HUVECs, 0.00 µM = 100.00, read-out: huvec.tta.18hr.
Where [10] appears, read: HUVECs, 0.00 µM = 100.00, read-out: huvec.ttl.18hr.
Where [11] appears, read: endothelial cells (endo), cyto, read-out: POD endo.cyto.24hr.
The mark [12] stands for this setting: endothelial cells (endo), mito, read-out: POD endo.mito.24hr.
Setting [13] is: endothelial cells (endo), mitoint, read-out: POD endo.mitoint.24hr.
The mark [14] stands for this setting: endothelial cells (endo), nma, read-out: POD endo.nma.24hr.
Where [15] appears, read: endothelial cells (endo), tc, read-out: POD endo.tc.24hr.
Setting [16] is: tube formation mtl, read-out: POD huvec.mtl.18hr.
Setting [17] is: tube formation tlps, read-out: POD huvec.tlps.18hr.
[18] abbreviates: tube formation tta, read-out: POD huvec.tta.18hr.
Where [19] appears, read: tube formation ttl, read-out: POD huvec.ttl.18hr.

Regarding `Oc1cc(Cl)cc(-c2cccc(Cl)c2)c1` [5-OH PCB 11], the viability at 0.01 µM in assay [1] (setting [2]) and in assay [1] (setting [6]) was 99.9% in each case. In addition, the activity at 0.01 µM in assay [1] (setting [3]) stood at 100%; in assay [1] (setting [4]) it was 96.8%; in assay [1] (setting [5]), 101%; with HUVECs (setting [7]), 117%; in the assay with HUVECs (setting [8]) it was 148%; with HUVECs (setting [9]), 116%. For the same molecule, the activity at 0.01 µM with HUVECs (setting [10]) came out at 106%. In addition, the viability at 0.1 µM in assay [1] (setting [2]) and in assay [1] (setting [6]) was 100% in each case. Moreover, the activity at 0.1 µM in assay [1] (setting [3]) stood at 100%; in assay [1] (setting [4]) it was 93.5%; in assay [1] (setting [5]) it was 100%; in the assay on HUVECs (setting [7]) it was 121%; with HUVECs (setting [8]), 186%; in the assay on HUVECs (setting [9]), 123%. Moreover, in the assay on HUVECs (setting [10]), the activity at 0.1 µM turned out to be 106%. Further, the viability at 1 µM in assay [1] (setting [2]) and in assay [1] (setting [6]) was 102% in each case. The activity at 1 µM worked out at 103% in assay [1] (setting [3]); 92.3% in assay [1] (setting [4]); 99.2% in assay [1] (setting [5]); 103% with HUVECs (setting [7]); 111% in the assay on HUVECs (setting [8]); 113% in the assay on HUVECs (setting [9]). Moreover, the activity at 1 µM in the assay on HUVECs (setting [10]) amounted to 104%. For the same molecule, the viability at 10 µM in assay [1] (setting [2]) and in assay [1] (setting [6]) was 102% in each case. The activity at 10 µM in assay [1] (setting [3]) turned out to be 103%; in assay [1] (setting [4]), 107%; in assay [1] (setting [5]), 98.6%; in the assay on HUVECs (setting [7]), 81.1%; with HUVECs (setting [8]), 102%; in the assay with HUVECs (setting [9]) it was 76.5%. The activity at 10 µM with HUVECs (setting [10]) is 67.6%. The viability at 100 µM in assay [1] (setting [2]) stood at 19.9%; in assay [1] (setting [6]), 47.2%. Also, the activity at 100 µM was 30.3% in assay [1] (setting [3]); 62.5% in assay [1] (setting [4]); 79.6% in assay [1] (setting [5]); 63% in the assay with HUVECs (setting [7]); 38.8% in the assay on HUVECs (setting [8]); 111% in the assay with HUVECs (setting [9]). In addition, the activity at 100 µM with HUVECs (setting [10]) amounted to 94.6%. In addition, the minimal effective concentration came to 42.3 µM in assay [1] (iPSC-EC, top concentration 100.00 µM, read-out: endo.cyto.24hr POD); 42.3 µM in assay [1] (iPSC-EC, top concentration 100.00 µM, read-out: endo.mito.24hr POD); 55 µM in assay [1] (iPSC-EC, top concentration 100.00 µM, read-out: endo.mitoint.24hr POD); 14.2 µM in assay [1] (iPSC-EC, top concentration 100.00 µM, read-out: endo.nma.24hr POD); 43.2 µM in assay [1] (iPSC-EC, top concentration 100.00 µM, read-out: endo.tc.24hrs POD); 6.98 µM in the assay with HUVECs (HUVECs, top concentration 100.00 µM, read-out: huvec.mtl.18hr POD). Further, the minimal effective concentration amounted to 100 µM with HUVECs (HUVECs, top concentration 100.00 µM, read-out: huvec.tlps.18hr POD); 100 µM with HUVECs (HUVECs, top concentration 100.00 µM, read-out: huvec.tta.18hr POD); 32.7 µM in the assay with HUVECs (HUVECs, top concentration 100.00 µM, read-out: huvec.ttl.18hr POD).

Turning to `Oc1ccc(-c2cccc(Cl)c2)cc1Cl` [4-OH-PCB 11], the minimal effective concentration in assay [1] (setting [11]) was found to be 43.6 µM; in assay [1] (setting [12]) it was 43.6 µM; in assay [1] (setting [13]), 13 µM; in assay [1] (setting [14]), 9.66 µM; in assay [1] (setting [15]) it was 62.1 µM; in the assay with HUVECs (setting [16]), 7.09 µM. Also, the minimal effective concentration in the assay with HUVECs (setting [17]) was determined as 35.3 µM; in the assay with HUVECs (setting [18]) it was 100 µM; in the assay with HUVECs (setting [19]), 4.15 µM.

Take `COc1ccc(-c2ccc(Cl)cc2)cc1` [4'-OMe-PCB 3, 4′-methoxy-4-chlorobiphenyl]: the minimal effective concentration in assay [1] (setting [11]) amounted to 100 µM; in assay [1] (setting [12]) it was 100 µM; in assay [1] (setting [13]), 20.5 µM; in assay [1] (setting [14]) it was 100 µM; in assay [1] (setting [15]), 100 µM; in the assay on HUVECs (setting [16]), 7.13 µM. Moreover, the minimal effective concentration was 49.5 µM in the assay on HUVECs (setting [17]), 8.82 µM in the assay with HUVECs (setting [18]) and 7.82 µM with HUVECs (setting [19]).

The values are drawn from PMC7377239, “Cardiovascular Effects of Polychlorinated Biphenyls and Their Major Metabolites” (Environmental Health Perspectives, 2020).
